Results as given in ChEMBL document CHEMBL1133854, “Discovery and evaluation of piperidinyl carboxylic acid derivatives as potent alpha(4)beta(1) integrin antagonists” (Bioorg Med Chem Lett, 2001).

What was measured:
Integrin alpha-4/beta-1 [1] = target: T1, Integrin alpha-4/beta-1 (Homo sapiens, UniProt P05556+P13612); experiment: Inhibition of VCAM-1 binding to integrin alpha4-beta1 of Jurkat cells; type: cell-based
Integrin alpha-4/beta-1 [2] = target: T1, Integrin alpha-4/beta-1; experiment: Inhibition of VCAM-1 binding to integrin alpha4-beta1 in Jurkat cells at 10 uM; type: cell-based
[3] = Partition coefficient (logP); type: physicochemical; details: octanol/water
[4] = Half life (t1/2) determined at a dose 10 mg/kg administered intraperitoneally to mice; type: ADME, organism-based; design: dose 10 mg/kg, route intraperitoneal; details: mouse, in vivo, ip
[5] = Inhibition of VCAM-1 binding to integrin alpha9/beta1 in Jurkat cells; type: cell-based, Homo sapiens
[6] = Maximal concentration determined at a dose 10 mg/kg administered intraperitoneally to mice; type: ADME, organism-based; design: dose 10 mg/kg, route intraperitoneal; details: mouse, in vivo, ip
Integrin alpha-V/beta-3 = Integrin alpha-V/beta-3 (Homo sapiens, UniProt P05106+P06756); experiment: Inhibition of VCAM-1 binding to integrin alphaV-beta3 in Jurkat cells; type: cell-based
[7] = Area under curve (AUC) determined at a dose 10 mg/kg administered intraperitoneally to mice; type: ADME, organism-based; design: dose 10 mg/kg, route intraperitoneal; details: mouse, in vivo, ip

T1 sequence (P05556 whole entry): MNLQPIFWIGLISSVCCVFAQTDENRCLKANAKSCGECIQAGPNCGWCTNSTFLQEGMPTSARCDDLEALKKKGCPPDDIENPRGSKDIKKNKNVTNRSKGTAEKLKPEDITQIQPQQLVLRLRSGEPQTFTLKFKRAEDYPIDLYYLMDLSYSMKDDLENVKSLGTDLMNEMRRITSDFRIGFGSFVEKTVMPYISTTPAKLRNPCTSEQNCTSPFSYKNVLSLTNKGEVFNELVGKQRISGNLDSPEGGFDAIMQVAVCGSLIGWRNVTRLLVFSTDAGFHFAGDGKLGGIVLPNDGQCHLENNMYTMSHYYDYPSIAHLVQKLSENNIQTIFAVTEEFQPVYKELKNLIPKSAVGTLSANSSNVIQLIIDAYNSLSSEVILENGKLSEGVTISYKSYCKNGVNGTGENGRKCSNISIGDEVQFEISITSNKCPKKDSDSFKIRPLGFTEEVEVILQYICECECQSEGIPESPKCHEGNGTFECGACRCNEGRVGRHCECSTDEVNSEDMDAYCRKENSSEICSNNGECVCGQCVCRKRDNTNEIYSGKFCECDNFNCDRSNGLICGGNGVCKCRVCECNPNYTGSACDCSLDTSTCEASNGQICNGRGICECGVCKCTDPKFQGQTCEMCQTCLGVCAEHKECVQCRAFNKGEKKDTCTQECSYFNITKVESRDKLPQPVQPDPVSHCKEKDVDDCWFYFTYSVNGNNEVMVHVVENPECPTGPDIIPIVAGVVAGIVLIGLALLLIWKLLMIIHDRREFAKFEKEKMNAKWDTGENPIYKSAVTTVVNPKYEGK
T1 sequence (P13612 whole entry): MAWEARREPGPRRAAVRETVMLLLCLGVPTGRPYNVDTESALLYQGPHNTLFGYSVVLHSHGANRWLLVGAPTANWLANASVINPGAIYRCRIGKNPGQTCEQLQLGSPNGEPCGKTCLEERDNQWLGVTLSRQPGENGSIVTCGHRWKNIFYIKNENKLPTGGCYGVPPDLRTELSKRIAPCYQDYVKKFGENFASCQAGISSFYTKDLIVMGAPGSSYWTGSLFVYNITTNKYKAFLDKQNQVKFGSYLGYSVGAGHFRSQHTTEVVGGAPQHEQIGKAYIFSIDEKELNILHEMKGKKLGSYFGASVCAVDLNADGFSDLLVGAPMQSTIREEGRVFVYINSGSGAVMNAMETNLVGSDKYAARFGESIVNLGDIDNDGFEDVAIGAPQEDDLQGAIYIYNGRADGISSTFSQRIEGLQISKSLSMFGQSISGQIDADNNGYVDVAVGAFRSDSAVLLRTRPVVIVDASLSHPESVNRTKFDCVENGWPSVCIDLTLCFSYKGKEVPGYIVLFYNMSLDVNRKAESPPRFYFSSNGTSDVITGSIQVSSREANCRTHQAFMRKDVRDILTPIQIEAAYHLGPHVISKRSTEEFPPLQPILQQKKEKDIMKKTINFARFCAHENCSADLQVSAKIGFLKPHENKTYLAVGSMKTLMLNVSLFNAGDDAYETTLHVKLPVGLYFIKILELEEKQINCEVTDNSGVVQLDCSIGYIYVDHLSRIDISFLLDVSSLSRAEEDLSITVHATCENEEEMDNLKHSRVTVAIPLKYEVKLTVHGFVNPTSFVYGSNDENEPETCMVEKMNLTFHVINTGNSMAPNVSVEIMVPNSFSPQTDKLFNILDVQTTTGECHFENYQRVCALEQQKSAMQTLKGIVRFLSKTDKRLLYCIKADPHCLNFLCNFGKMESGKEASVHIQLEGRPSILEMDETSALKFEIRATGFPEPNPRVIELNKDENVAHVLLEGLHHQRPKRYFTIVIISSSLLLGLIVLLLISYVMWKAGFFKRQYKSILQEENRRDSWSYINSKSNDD
Integrin alpha-V/beta-3, sequence (P05106 27-788 limits assumed): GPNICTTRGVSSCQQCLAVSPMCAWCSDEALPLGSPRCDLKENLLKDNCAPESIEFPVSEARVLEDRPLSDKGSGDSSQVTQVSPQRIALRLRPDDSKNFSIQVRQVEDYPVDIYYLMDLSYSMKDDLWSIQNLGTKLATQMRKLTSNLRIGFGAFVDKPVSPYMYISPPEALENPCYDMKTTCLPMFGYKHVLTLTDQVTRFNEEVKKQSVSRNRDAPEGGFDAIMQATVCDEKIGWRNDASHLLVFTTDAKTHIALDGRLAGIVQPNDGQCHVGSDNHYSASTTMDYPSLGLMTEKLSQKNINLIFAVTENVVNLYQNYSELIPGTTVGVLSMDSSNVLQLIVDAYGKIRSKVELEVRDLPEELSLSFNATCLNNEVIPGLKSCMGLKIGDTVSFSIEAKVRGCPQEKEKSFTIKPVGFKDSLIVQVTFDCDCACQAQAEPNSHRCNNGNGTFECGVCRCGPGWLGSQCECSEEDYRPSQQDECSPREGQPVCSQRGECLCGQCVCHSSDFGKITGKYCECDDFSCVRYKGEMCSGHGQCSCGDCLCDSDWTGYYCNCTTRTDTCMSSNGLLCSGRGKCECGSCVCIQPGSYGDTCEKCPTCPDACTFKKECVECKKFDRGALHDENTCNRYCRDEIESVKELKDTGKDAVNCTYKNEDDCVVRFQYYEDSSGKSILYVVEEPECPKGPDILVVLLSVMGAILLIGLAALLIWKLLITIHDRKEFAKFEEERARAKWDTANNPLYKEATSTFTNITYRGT
Integrin alpha-V/beta-3, sequence (P06756 31-889 limits assumed): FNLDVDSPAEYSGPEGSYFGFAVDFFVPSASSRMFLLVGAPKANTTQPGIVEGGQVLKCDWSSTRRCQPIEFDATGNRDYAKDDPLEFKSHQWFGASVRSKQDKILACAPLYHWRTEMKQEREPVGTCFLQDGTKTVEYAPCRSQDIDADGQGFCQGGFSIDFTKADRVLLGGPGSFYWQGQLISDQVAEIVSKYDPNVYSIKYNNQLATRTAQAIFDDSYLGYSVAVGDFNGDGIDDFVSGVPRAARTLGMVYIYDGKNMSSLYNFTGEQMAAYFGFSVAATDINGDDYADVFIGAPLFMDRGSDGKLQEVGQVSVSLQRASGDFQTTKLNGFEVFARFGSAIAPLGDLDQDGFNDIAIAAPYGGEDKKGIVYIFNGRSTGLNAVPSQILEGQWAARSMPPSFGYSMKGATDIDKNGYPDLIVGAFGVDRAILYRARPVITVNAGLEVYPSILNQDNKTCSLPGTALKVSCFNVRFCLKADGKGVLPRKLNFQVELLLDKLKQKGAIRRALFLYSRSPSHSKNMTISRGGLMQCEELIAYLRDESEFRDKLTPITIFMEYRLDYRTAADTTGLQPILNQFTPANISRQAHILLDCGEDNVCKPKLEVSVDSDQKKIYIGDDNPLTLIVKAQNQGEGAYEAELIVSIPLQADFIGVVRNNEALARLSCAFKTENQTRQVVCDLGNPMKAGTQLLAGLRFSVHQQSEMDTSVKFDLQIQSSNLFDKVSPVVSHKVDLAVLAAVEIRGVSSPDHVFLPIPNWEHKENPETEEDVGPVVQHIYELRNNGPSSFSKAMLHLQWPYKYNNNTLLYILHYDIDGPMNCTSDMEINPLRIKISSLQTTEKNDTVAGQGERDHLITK
Integrin alpha-V/beta-3, sequence (P06756 891-1048 limits assumed): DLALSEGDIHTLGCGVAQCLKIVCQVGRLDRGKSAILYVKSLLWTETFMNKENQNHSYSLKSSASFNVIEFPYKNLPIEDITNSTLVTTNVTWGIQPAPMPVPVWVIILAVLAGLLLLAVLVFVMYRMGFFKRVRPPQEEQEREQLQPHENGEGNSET

Row | Compound | IC50 (Integrin alpha-4/beta-1 [1]) [µM] | inhibition (Integrin alpha-4/beta-1 [2]) [%] | other results
1 | Cc1ccccc1NC(=O)Nc1ccc(CC(=O)N[C@@H](CC(C)C)C(=O)N2CCC(C(=O)O)CC2)cc1 | 4.7 | 96 | 
2 | Cc1ccccc1NC(=O)Nc1ccc(CC(=O)N[C@@H](CC(C)C)C(=O)N[C@H](C)CC(=O)O)cc1 |  |  | logP [3]: 1.72
3 | Cc1ccccc1NC(=O)Nc1ccc(CC(=O)N[C@@H](CC(C)C)C(=O)N2CCCCC2CC(=O)O)cc1 (stereo partly drawn) | 0.3 | 100 | half-life [4]: 48 min; IC50 [5]: > 50 µM; logP [3]: 1.89; Cmax [6]: 1440 ng/mL; IC50 (Integrin alpha-V/beta-3): > 200 µM; AUC [7]: 955 ng·h/mL
4 | Cc1ccccc1NC(=O)Nc1ccc(CC(=O)N[C@@H](CC(C)C)C(=O)N2CCCCC2C(C(=O)O)c2ccccc2)cc1 (stereo partly drawn) | 4.96 | 99 | 
5 | Cc1ccccc1NC(=O)Nc1ccc(CC(=O)N[C@@H](CC(C)C)C(=O)N2CCCCC2C(=O)O)cc1 (stereo partly drawn) | 10 | 49 | 
6 | Cc1ccccc1NC(=O)Nc1ccc(CC(=O)N[C@@H](CC(C)C)C(=O)N2CCCC(CC(=O)O)C2)cc1 (stereo partly drawn) | 7.2 | 55 | 
7 | Cc1ccccc1NC(=O)Nc1ccc(CC(=O)N[C@@H](CC(C)C)C(=O)N2CCCC(C(=O)O)C2)cc1 (stereo partly drawn) | > 10 | 25 | 
8 | Cc1ccccc1NC(=O)Nc1ccc(CC(=O)N[C@@H](CC(C)C)C(=O)N2CCCC(CCC(=O)O)C2)cc1 (stereo partly drawn) | 6.74 | 77 | 
9 | Cc1ccccc1NC(=O)Nc1ccc(CC(=O)N[C@@H](CC(C)C)C(=O)N2CCC(CC(=O)O)CC2)cc1 | 0.55 | 98 | 
